Test results: ChEMBL document CHEMBL1201861, “Genomics of Drug Sensitity in Cancer screening data, Wellcome Trust Sanger Institute”
One block for each molecule: values may come before it.

Key:
[1] = tested on: BHY; experiment: cells; assay type: functional, cell-based, Homo sapiens; details: Homo sapiens, BHY
Description: SANGER: Inhibition of human BHY cell growth in a cell viability assay.

[2] = tested on: MDA-MB-361; experiment: cells; assay type: functional, cell-based, Homo sapiens; details: Homo sapiens, MDA-MB-361
[3] = tested on: SiHa; experiment: cells; assay type: functional, cell-based, Homo sapiens; details: Homo sapiens, SiHa;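 also: Viability-based readout of growth inhibition in SiHa cells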
Description: SANGER: Inhibition of human SiHa cell growth in a cell viability assay.

[4] = tested on: MKN-28; experiment: cells; assay type: functional, cell-based, Homo sapiens; details: Homo sapiens, MKN-28;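 also: cell viability assay read-out, IC50 reflects suppression of growth of human MKN-28 cells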
Description: SANGER: Inhibition of human MKN28 cell growth in a cell viability assay.

[5] = tested on: CAL-120; experiment: cells; assay type: functional, cell-based, Homo sapiens; details: Homo sapiens, CAL-120
Description: SANGER: Inhibition of human CAL-120 cell growth in a cell viability assay.

[6] = tested on: SW837; experiment: cells; assay type: functional, cell-based, Homo sapiens; details: Homo sapiens, SW837;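 also: growth inhibition of SW837 cells, determined with a cell viability assay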
Description: SANGER: Inhibition of human SW837 cell growth in a cell viability assay.

[7] = tested on: KU-19-19; experiment: cells; assay type: functional, cell-based, Homo sapiens; details: Homo sapiens, KU-19-19
Description: SANGER: Inhibition of human KU-19-19 cell growth in a cell viability assay.

[8] = tested on: MeWo; experiment: cells; assay type: functional, cell-based, Homo sapiens; details: Homo sapiens, MeWo;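 also: growth inhibition of MeWo cells, determined by a cell viability readout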
Description: SANGER: Inhibition of human Mewo cell growth in a cell viability assay.

[9] = tested on: MOLT-13; experiment: cells; assay type: functional, cell-based, Homo sapiens; details: Homo sapiens, MOLT-13;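 also: IC50 for suppression of MOLT-13 cell growth, read out with a cell viability assay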
Description: SANGER: Inhibition of human MOLT-13 cell growth in a cell viability assay.

[10] = tested on: LoVo; experiment: cells; assay type: functional, cell-based, Homo sapiens; details: Homo sapiens, LoVo
Description: SANGER: Inhibition of human LoVo cell growth in a cell viability assay.

[11] = tested on: GAMG; experiment: cells; assay type: functional, cell-based, Homo sapiens; details: Homo sapiens, GAMG;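 also: cell growth inhibition measured by a viability assay in the GAMG human cell line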
Description: SANGER: Inhibition of human GAMG cell growth in a cell viability assay.

[12] = tested on: NCI-H2405; experiment: cells; assay type: functional, cell-based, Homo sapiens; details: Homo sapiens, NCI-H2405
Description: SANGER: Inhibition of human NCI-H2405 cell growth in a cell viability assay.

[13] = tested on: IGROV-1; experiment: cells; assay type: functional, cell-based, Homo sapiens; details: Homo sapiens, IGROV-1;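 also: reduction of IGROV-1 cell growth, read out with a viability assay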
Description: SANGER: Inhibition of human IGROV-1 cell growth in a cell viability assay.

[14] = tested on: CAPAN-1; experiment: cells; assay type: functional, cell-based, Homo sapiens; details: Homo sapiens, CAPAN-1;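 also: growth suppression of CAPAN-1 cells, read out by a cell viability assay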
Description: SANGER: Inhibition of human CAPAN-1 cell growth in a cell viability assay.

[15] = tested on: CAL-54; experiment: cells; assay type: functional, cell-based, Homo sapiens; details: Homo sapiens, CAL-54;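 also: growth inhibition of CAL-54 cells, read out by a viability measurement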
Description: SANGER: Inhibition of human CAL-54 cell growth in a cell viability assay.

[16] = tested on: FaDu; experiment: cells; assay type: functional, cell-based, Homo sapiens; details: Homo sapiens, FaDu;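 also: cell viability readout of growth inhibition in FaDu cells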
Description: SANGER: Inhibition of human FADU cell growth in a cell viability assay.

[17] = tested on: MDA-MB-157; experiment: cells; assay type: functional, cell-based, Homo sapiens; details: Homo sapiens, MDA-MB-157
Description: SANGER: Inhibition of human MDA-MB-157 cell growth in a cell viability assay.

[18] = tested on: EFO-21; experiment: cells; assay type: functional, cell-based, Homo sapiens; details: Homo sapiens, EFO-21;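 also: growth inhibition of EFO-21 cells measured with a viability assay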
Description: SANGER: Inhibition of human EFO-21 cell growth in a cell viability assay.

[19] = tested on: TYK-nu; experiment: cells; assay type: functional, cell-based, Homo sapiens; details: Homo sapiens, TYK-nu
Description: SANGER: Inhibition of human TYK-nu cell growth in a cell viability assay.

[20] = tested on: T98G; experiment: cells; assay type: functional, cell-based, Homo sapiens; details: Homo sapiens, T98G;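 also: growth inhibition of T98G cells, read out by a cell viability assay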
Description: SANGER: Inhibition of human T98G cell growth in a cell viability assay.

[21] = tested on: BT-549; experiment: cells; assay type: functional, cell-based, Homo sapiens; details: Homo sapiens, BT-549
Description: SANGER: Inhibition of human BT-549 cell growth in a cell viability assay.

[22] = tested on: AU565; experiment: cells; assay type: functional, cell-based, Homo sapiens; details: Homo sapiens, AU565;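 also: cell viability assay measuring growth inhibition of human AU565 cells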
Description: SANGER: Inhibition of human AU565 cell growth in a cell viability assay.

[23] = tested on: PC-14; experiment: cells; assay type: functional, cell-based, Homo sapiens; details: Homo sapiens, PC-14;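 also: cell viability assay measuring inhibition of PC-14 cell growth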
Description: SANGER: Inhibition of human PC-14 cell growth in a cell viability assay.

[24] = tested on: DBTRG-05MG; experiment: cells; assay type: functional, cell-based, Homo sapiens; details: Homo sapiens, DBTRG-05MG;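 also: cell viability assay measuring growth inhibition of human DBTRG-05MG cells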
Description: SANGER: Inhibition of human DBTRG-05MG cell growth in a cell viability assay.

[25] = tested on: HuO9; experiment: cells; assay type: functional, cell-based, Homo sapiens; details: Homo sapiens, HuO9;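 also: growth inhibition of HuO9 cells, read out with a cell viability assay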
Description: SANGER: Inhibition of human HuO9 cell growth in a cell viability assay.

[26] = tested on: CHP-212; experiment: cells; assay type: functional, cell-based, Homo sapiens; details: Homo sapiens, CHP-212
Description: SANGER: Inhibition of human CHP-212 cell growth in a cell viability assay.

[27] = tested on: NUGC-3; experiment: cells; assay type: functional, cell-based, Homo sapiens; details: Homo sapiens, NUGC-3;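 also: growth inhibition of human NUGC-3 cells, read out with a cell viability assay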
Description: SANGER: Inhibition of human NUGC-3 cell growth in a cell viability assay.

[28] = tested on: KYSE-520 cell line; experiment: cells; assay type: functional, cell-based, Homo sapiens; details: Homo sapiens, KYSE-520;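 also: growth inhibition of human KYSE-520 cells, read out with a viability assay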
Description: SANGER: Inhibition of human KYSE-520 cell growth in a cell viability assay.

[29] = tested on: MEL-HO; experiment: cells; assay type: functional, cell-based, Homo sapiens; details: Homo sapiens, MEL-HO
Description: SANGER: Inhibition of human MEL-HO cell growth in a cell viability assay.

[30] = tested on: SBC-5; experiment: cells; assay type: functional, cell-based, Homo sapiens; details: Homo sapiens, SBC-5;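 also: cell viability assay read-out, IC50 is the concentration that inhibits growth of the cells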
Description: SANGER: Inhibition of human SBC-5 cell growth in a cell viability assay.

[31] = tested on: A-427; experiment: cells; assay type: functional, cell-based, Homo sapiens; details: Homo sapiens, A-427;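 also: growth inhibition of human A-427 cells, read out by a cell viability assay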
Description: SANGER: Inhibition of human A427 cell growth in a cell viability assay.

[32] = tested on: CWR22R; experiment: cells; assay type: functional, cell-based, Homo sapiens; details: Homo sapiens, 22Rv1;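 also: growth inhibition of 22Rv1 cells, read out with a cell viability assay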
Description: SANGER: Inhibition of human 22RV1 cell growth in a cell viability assay.

[33] = tested on: SAOS-2; experiment: cells; assay type: functional, cell-based, Homo sapiens; details: Homo sapiens, SAOS-2;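 also: growth inhibition of human Saos-2 cells determined by a cell viability assay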
Description: SANGER: Inhibition of human Saos-2 cell growth in a cell viability assay.

[34] = tested on: HT-3; experiment: cells; assay type: functional, cell-based, Homo sapiens; details: Homo sapiens, HT-3;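 also: growth inhibition measured with a cell viability readout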
Description: SANGER: Inhibition of human HT-3 cell growth in a cell viability assay.

[35] = tested on: SF-295; experiment: cells; assay type: functional, cell-based, Homo sapiens; details: Homo sapiens, SF-295;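 also: growth inhibition of SF-295 cells, read out with a cell viability assay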
Description: SANGER: Inhibition of human SF295 cell growth in a cell viability assay.

[36] = tested on: G-361; experiment: cells; assay type: functional, cell-based, Homo sapiens; details: Homo sapiens, G-361
[37] = tested on: NCI-H322M; experiment: cells; assay type: functional, cell-based, Homo sapiens; details: Homo sapiens, NCI-H322M;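 also: cell viability assay measuring inhibition of growth of human NCI-H322M cells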
Description: SANGER: Inhibition of human NCI-H322M cell growth in a cell viability assay.

[38] = tested on: IST-SL2; experiment: cells; assay type: functional, cell-based, Homo sapiens; details: Homo sapiens, IST-SL2;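 also: growth inhibition of human IST-SL2 cells, read out by a cell viability assay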
Description: SANGER: Inhibition of human IST-SL2 cell growth in a cell viability assay.

[39] = tested on: WSU-NHL; experiment: cells; assay type: functional, cell-based, Homo sapiens; details: Homo sapiens, WSU-NHL
Description: SANGER: Inhibition of human WSU-NHL cell growth in a cell viability assay.

[40] = tested on: SU-DHL-1; experiment: SANGER: Inhibition of human SU-DHL-1 cell growth in a cell viability assay.; assay type: functional, cell-based; details: Homo sapiens, SU-DHL-1
[41] = tested on: NCI-H1522; experiment: cells; assay type: functional, cell-based, Homo sapiens; details: Homo sapiens, NCI-H1522;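 also: growth inhibition of NCI-H1522 cells, read out with a cell viability assay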
Description: SANGER: Inhibition of human NCI-H1522 cell growth in a cell viability assay.

[42] = tested on: NCI-H1417; experiment: cells; assay type: functional, cell-based, Homo sapiens; details: Homo sapiens, NCI-H1417;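 also: human NCI-H1417 cells, growth inhibition determined with a cell viability readout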
Description: SANGER: Inhibition of human NCI-H1417 cell growth in a cell viability assay.

[43] = tested on: SNU-C1; experiment: cells; assay type: functional, cell-based, Homo sapiens; details: Homo sapiens, SNU-C1;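 also: growth inhibition of SNU-C1 human cells, read out by a cell viability assay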
Description: SANGER: Inhibition of human SNU-C1 cell growth in a cell viability assay.

[44] = tested on: RPMI 8402; experiment: SANGER: Inhibition of human RPMI-8402 cell growth in a cell viability assay.; assay type: functional, cell-based; details: Homo sapiens, RPMI 8402; read-out: IC50
[45] = tested on: TUR; experiment: cells; assay type: functional, cell-based, Homo sapiens; details: Homo sapiens, TUR
Description: SANGER: Inhibition of human TUR cell growth in a cell viability assay.

[46] = tested on: TE-441-T; experiment: cells; assay type: functional, cell-based, Homo sapiens; details: Homo sapiens, TE-441-T
Description: SANGER: Inhibition of human TE-441-T cell growth in a cell viability assay.

[47] = tested on: ARH-77; experiment: cells; assay type: functional, cell-based, Homo sapiens; details: Homo sapiens, ARH-77;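 also: growth inhibition of ARH-77 cells, read out by a cell viability assay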
Description: SANGER: Inhibition of human ARH-77 cell growth in a cell viability assay.

[48] = tested on: RPMI-6666; experiment: cells; assay type: functional, cell-based, Homo sapiens; details: Homo sapiens, RPMI-6666
Description: SANGER: Inhibition of human RPMI-6666 cell growth in a cell viability assay.

SMILES: COc1cc2c(Nc3ccc(NC(=O)c4ccccc4)cc3)ncnc2cc1OCCCN1CCOCC1
- IC50 [1]: > 4000 nM
- IC50 [2]: > 4000 nM
- IC50 [3]: > 4000 nM
- IC50 [4]: > 4000 nM
- IC50 [5]: > 4000 nM
- IC50 [6]: > 4000 nM
- IC50 [7]: > 4000 nM
- IC50 [8]: > 4000 nM
- IC50 [9]: 1570 nM
- IC50 [10]: > 4000 nM
- IC50 [11]: > 4000 nM
- IC50 [12]: > 4000 nM
- IC50 [13]: > 4000 nM
- IC50 [14]: > 4000 nM
- IC50 [15]: > 4000 nM
- IC50 [16]: > 4000 nM
- IC50 [17]: > 4000 nM
- IC50 [18]: 3110 nM
- IC50 [19]: > 4000 nM
- IC50 [20]: 3950 nM
- IC50 [21]: > 4000 nM
- IC50 [22]: > 4000 nM
- IC50 [23]: > 4000 nM
- IC50 [24]: > 4000 nM
- IC50 [25]: > 4000 nM
- IC50 [26]: 1470 nM
- IC50 [27]: 3850 nM
- IC50 [28]: > 4000 nM
- IC50 [29]: > 4000 nM
- IC50 [30]: > 4000 nM
- IC50 [31]: > 4000 nM
- IC50 [32]: > 4000 nM
- IC50 [33]: > 4000 nM
- IC50 [34]: > 4000 nM
- IC50 [35]: > 4000 nM

- IC50 [1]: 702 nM
- IC50 [2]: 226 nM
- IC50 [3]: 261 nM
- IC50 [4]: 1130 nM
- IC50 [5]: 479 nM
- IC50 [6]: 2390 nM
- IC50 [7]: 440 nM
- IC50 [8]: 484 nM
- IC50 [10]: 161 nM
- IC50 [11]: 212 nM
- IC50 [12]: 675 nM
- IC50 [13]: 454 nM
- IC50 [36]: 125 nM
- IC50 [14]: 10800 nM
- IC50 [15]: 161 nM
- IC50 [16]: 526 nM
- IC50 [17]: 841 nM
- IC50 [18]: 2600 nM
- IC50 [19]: 324 nM
- IC50 [20]: 606 nM
- IC50 [21]: 680 nM
- IC50 [22]: 353 nM
- IC50 [23]: 331 nM
- IC50 [24]: 1460 nM
- IC50 [25]: 727 nM
- IC50 [26]: 4570 nM
- IC50 [27]: 1150 nM
- IC50 [28]: 4140 nM
- IC50 [29]: 88.2 nM
- IC50 [30]: 147 nM
- IC50 [31]: 44.7 nM
- IC50 [32]: 1030 nM
- IC50 [33]: 613 nM
- IC50 [34]: 192 nM
- IC50 [35]: 629 nM
SMILES: CC(C)c1ccccc1Cc1cc(C(=O)Nc2ccc(S(=O)(=O)c3ccccc3C(C)(C)C)cc2)c(O)c(O)c1O

SMILES: N#Cc1c(O)c2c(-c3ccc(-c4ccccc4O)cc3)csc2[nH]c1=O
- IC50 [1]: > 1020 nM
- IC50 [37]: > 1020 nM
- IC50 [2]: 860 nM
- IC50 [3]: > 1020 nM
- IC50 [4]: > 1020 nM
- IC50 [5]: > 1020 nM
- IC50 [6]: > 1020 nM
- IC50 [7]: > 1020 nM
- IC50 [8]: > 1020 nM
- IC50 [10]: > 1020 nM
- IC50 [38]: > 1020 nM
- IC50 [11]: > 1020 nM
- IC50 [39]: 297 nM
- IC50 [12]: > 1020 nM
- IC50 [13]: > 1020 nM
- IC50 [36]: 88.1 nM
- IC50 [14]: 256 nM
- IC50 [15]: > 1020 nM
- IC50 [16]: > 1020 nM
- IC50 [40]: > 1020 nM
- IC50 [17]: 824 nM
- IC50 [18]: > 1020 nM
- IC50 [19]: > 1020 nM
- IC50 [20]: > 1020 nM
- IC50 [41]: 194 nM
- IC50 [42]: 439 nM
- IC50 [43]: > 1020 nM
- IC50 [22]: > 1020 nM
- IC50 [23]: > 1020 nM
- IC50 [44]: 442 nM
- IC50 [24]: > 1020 nM
- IC50 [45]: 345 nM
- IC50 [46]: > 1020 nM
- IC50 [25]: > 1020 nM
- IC50 [26]: > 1020 nM
- IC50 [27]: > 1020 nM
- IC50 [28]: > 1020 nM
- IC50 [29]: > 1020 nM
- IC50 [47]: 141 nM
- IC50 [30]: > 1020 nM
- IC50 [31]: > 1020 nM
- IC50 [32]: > 1020 nM
- IC50 [48]: 68 nM
- IC50 [33]: > 1020 nM
- IC50 [34]: > 1020 nM
- IC50 [35]: > 1020 nM
